From ChEMBL document CHEMBL1201862, “PubChem BioAssay data set” (2004)
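Following 48 hours of exposure in 96-well plates, responses at five concentrations were used to interpolate endpoints linearly. At the GI50, growth is halved.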 The source made the active and inactive calls. No stated cut-off is given here; in the data, active = GI50 up to about 1.1 µM and inactive = higher.

How the values were obtained:
Experiment in all cases: NCI-60 cell line screen, 48 h
[1] = tested on: BT-549
[2] = tested on: COLO 205
[3] = tested on: DU-145
[4] = tested on: HOP-62
[5] = tested on: Hs-578T
[6] = tested on: K562
[7] = tested on: M14
[8] = tested on: MCF7
[9] = tested on: MDA-N
[10] = tested on: Malme-3M
[11] = tested on: OVCAR-3
[12] = tested on: OVCAR-5
[13] = tested on: OVCAR-8
[14] = tested on: PC-3
[15] = tested on: RPMI-8226
[16] = tested on: SK-MEL-2
[17] = tested on: SK-OV-3
[18] = tested on: SNB-19
[19] = tested on: SR
[20] = tested on: NCI-H226

| SMILES | GI50 [1] | GI50 [2] | GI50 [3] | GI50 [4] | GI50 [5] | GI50 [6] | GI50 [7] | GI50 [8] | GI50 [9] | GI50 [10] | GI50 [11] | GI50 [12] | GI50 [13] | GI50 [14] | GI50 [15] | GI50 [16] | GI50 [17] | GI50 [18] | GI50 [19] | GI50 [20] |
| --- | --- | --- | --- | --- | --- | --- | --- | --- | --- | --- | --- | --- | --- | --- | --- | --- | --- | --- | --- | --- |
| CCOC(=O)C1(C/C=C/CBr)Cc2ccccc2C1=O (configuration not stated) | 2.95 µM (inactive) | 3.21 µM (inactive) | 3.38 µM (inactive) | 4.03 µM (inactive) | 5.53 µM (inactive) | 1.87 µM (inactive) | 2.83 µM (inactive) | 2.48 µM (inactive) | 2.2 µM (inactive) | 2.76 µM (inactive) | 2.17 µM (inactive) | 3.02 µM (inactive) | 2.39 µM (inactive) | 4.13 µM (inactive) | 2.02 µM (inactive) | 2.25 µM (inactive) | 8.69 µM (inactive) | 5.45 µM (inactive) |  |  |
| Cc1ccccc1N/C(N)=N/C#N | > 100 µM (inactive) | > 100 µM (inactive) | > 100 µM (inactive) | > 100 µM (inactive) | > 100 µM (inactive) | > 100 µM (inactive) | > 100 µM (inactive) | > 100 µM (inactive) | > 100 µM (inactive) | > 100 µM (inactive) |  | > 100 µM (inactive) | > 100 µM (inactive) | > 100 µM (inactive) | > 100 µM (inactive) | > 100 µM (inactive) | > 100 µM (inactive) | > 100 µM (inactive) | > 100 µM (inactive) |  |
| O=C(Nc1ccc(Cl)c(C(F)(F)F)c1)C(=O)c1c(O)c2ccccc2oc1=O | > 100 µM (inactive) |  |  | > 100 µM (inactive) | > 100 µM (inactive) | > 100 µM (inactive) | > 100 µM (inactive) | > 100 µM (inactive) | > 100 µM (inactive) | > 100 µM (inactive) | > 100 µM (inactive) | > 100 µM (inactive) | > 100 µM (inactive) | > 100 µM (inactive) | > 100 µM (inactive) | > 100 µM (inactive) | > 100 µM (inactive) | > 100 µM (inactive) | > 100 µM (inactive) | > 100 µM (inactive) |
| Cn1c(=O)c2c(nc(N/N=C3/SCC(=O)N3Cc3ccccc3)n2C)n(C)c1=O | 74 µM (inactive) | 50.4 µM (inactive) | > 100 µM (inactive) | > 100 µM (inactive) | 60.8 µM (inactive) | < 0.01 µM (active) | > 100 µM (inactive) | 81.7 µM (inactive) | > 100 µM (inactive) | > 100 µM (inactive) | 20.9 µM (inactive) | > 100 µM (inactive) | > 100 µM (inactive) | 39.2 µM (inactive) | 17.5 µM (inactive) | 58.7 µM (inactive) | 43.5 µM (inactive) | > 100 µM (inactive) |  | > 100 µM (inactive) |
| CCNC(=O)Cc1nc2c(O)ncnc2n1C1OC(CO)C(O)C1O (configuration not stated) | > 100 µM (inactive) | > 100 µM (inactive) | > 100 µM (inactive) | > 100 µM (inactive) | > 100 µM (inactive) | > 100 µM (inactive) | > 100 µM (inactive) | > 100 µM (inactive) | > 100 µM (inactive) | > 100 µM (inactive) | > 100 µM (inactive) | > 100 µM (inactive) | > 100 µM (inactive) | > 100 µM (inactive) | > 100 µM (inactive) | > 100 µM (inactive) | > 100 µM (inactive) | > 100 µM (inactive) |  | > 100 µM (inactive) |
